| Structure (SMILES) | melting point [°C] |
| --- | --- |
| CCn1cnc2c(Nc3cccc(NC(=O)C#Cc4cccc(C(F)(F)F)c4)c3)nc(NC3CCC(O)CC3)nc21 (stereo not drawn) [Example 103, 3-(3-Trifluoromethyl-phenyl)-propynoic acid {3-[9-ethyl-2-(4-hydroxy-cyclohexylamino)-9H-purin 6-ylamino]-phenyl}-amide] | 156 to 168 |
| CCn1cnc2c(Nc3cccc(NC(=O)C#Cc4c(Cl)cccc4Cl)c3)nc(N[C@H]3CC[C@H](O)CC3)nc21 [Example 107, N-{3-[9-Ethyl-2-(trans-4-hydroxy-cyclo-hexylamino)-9H-purin-6-yl-amino]-phenyl}-3-(2,6-dichlorophenyl)-propargylic acid amide] | 234 to 236 |
| CCn1cnc2c(Nc3cccc(NC(=O)C#Cc4cc(C)ccc4C)c3)nc(N[C@H]3CC[C@H](O)CC3)nc21 [Example 109, N-{3-[9-Ethyl-2-(trans-4-hydroxy-cyclo-hexylamino)-9H-purin-6-yl-amino]-phenyl)-3-(2,5-dimethyl-phenyl)-propargylic acid amide] | 231 to 232 |
| CCn1cnc2c(Nc3cccc(NC(=O)C#Cc4ccc(C)c(C)c4)c3)nc(N[C@H]3CC[C@H](O)CC3)nc21 [Example 110, N-(3-[9-Ethyl-2-(trans-4-hydroxy-cyclo-hexylamino)-9H-purin-6-yl-amino]-phenyl}-3-(3,4-dimethyl-phenyl)-propargylic acid amide] | 146 to 148 |

The remaining lines, values ahead:

| melting point [°C] | Structure (SMILES) |
| --- | --- |
| 149 to 156 | CCn1cnc2c(Nc3cccc(NC(=O)C#Cc4cccc(C)n4)c3)nc(NC3CCC(O)CC3)nc21 (stereo not drawn) [Example 105, 3-(6-Methyl-pyridin-2-yl)-propynoic acid {3-[9-ethyl-2-(4-hydroxy-cyclohexylamino)-9H-purin-6-ylamino]-phenyl}-amide] |
| 167 to 177 | CCn1cnc2c(Nc3cccc(NC(=O)C#Cc4nccc(C)n4)c3)nc(NC3CCC(O)CC3)nc21 (stereo not drawn) [Example 106, 3-(4-Methyl-pyrimidin-2-yl)-propynoic acid {3-[9-ethyl-2-(4-hydroxy-cyclohexylamino)-9H-purin-6-ylamino]-phenyl}-amide] |
| 158 to 161 | CCn1cnc2c(Nc3cccc(NC(=O)C#Cc4cccs4)c3)nc(N[C@H]3CC[C@H](O)CC3)nc21 [Example 108, N-{3-[9-Ethyl-2-(trans-4-hydroxy-cyclo-hexylamino)-9H-purin-6-yl-amino]-phenyl}-3-(2-thiophenyl)-propargylic acid amide] |
| 150 | CCn1cnc2c(Nc3cccc(NC(=O)C#CCN4CCCCC4)c3)nc(NC3CCC(O)CC3)nc21 (stereo not drawn) [Example 111, 4-Piperidin-1-yl-but-2-ynoic acid {3-[9-ethyl-2-(4-hydroxy-cyclohexyl-amino)-9H-purin-6-ylamino]-phenyl}-amide] |
| 115 to 122 | CCn1cnc2c(Nc3cccc(NC(=O)C#CCN4CCN(C)CC4)c3)nc(NC3CCC(O)CC3)nc21 (stereo not drawn) [Example 112, 4-(4-Methyl-piperazin-1-yl)-but-2-ynoic acid {3-[9-ethyl-2-(4-hydroxy-cyclohexylamino)-9H-purin-6-ylamino]-phenyl)-amide] |

From patent publication US6767906B2, “2-amino-6-anilino-purines and their use as medicaments” (Novartis AG, priority 1999, dated 2004)
